Experimental data: patent EP2488179B1, “NRF2 INHIBITORS AND USE THEREOF” (priority 2009, dated 2011)

Assays:
Format in all cases: cell-based
Nrf2 = experiment: ARE-pGL3 luciferase reporter assay for screening Nrf2 inhibitors in transformed HEK293 cells
Protocol: Oligomers including an ARE site (SEQ ID NOS: 1 to 10, Bioneer Corp., Ltd., Korea) were synthesized and treated with Kpnl and M1 ul restriction enzymes. The oligomers were inserted into a pGL3 luciferase plasmid (Promega, USA) treated with the Kpnl and M1ul restriction enzymes using a ligase (Promega, USA) to prepare ARE-pGL3 luciferase. […] Besides the plasmid, pcDNA3.1 (Invitrogen, USA) plasmid including a Neo gene was used together as a selection plasmid to select a transformed cell using G418 (neomycin) as a selectable factor.
HEK293 cells were purchased from the American Type Culture Collection (ATCC) and cultured in a Dulbecco's modified Eagle's medium (DMEM) supplemented with 10% fetal bovine serum (FBS), 100 µg/ml of streptomycin, and 100 units/ml of penicillin under 5% CO2 conditions at 37°C. A transformation by which the ARE-pGL3 luciferase was introduced into the HEK293cell was performed using Lipofectamine 2000™ (Invitrogen, Calsbad, CA, USA). Activity of luciferase was measured using a Luciferase Assay Kit (Promega, Medison, WI, USA). […] Based on the result, ARE-pGL3 luciferase plasmid including 4(1/2)xARE-2 having a sequence of SEQ ID NO: 10 was used as a plasmid for screening an Nrf2 inhibitor.
After the transformation performed according to Example 1-(2), transformed HEK293 cells that expressed both ARE-pGL3 luciferase and pcDNA3.1 were selected using a culture medium including G418 (600µg/ml) and used as a cell line for screening the Nrf2 inhibitor. 20,000 cells were inoculated into each well of a 96-well plate and cultured for 24 hours under the conditions described above in Example 1-(2). […] Transformed cells that stably expressed the ARE-pGL3 luciferase plasmid were selected, and 8,000 candidate substances, low molecular weight single compounds were used to screen the Nrf2 inhibitor. Each candidate substance was added to each well to a final concentration of 10 µM. The wells were incubated for 18 hours, and the luciferase activity was measured using a Victor 3 Luminometer (Perkin Elmer, USA).

HEK293 cells = experiment: CCK-8 viability assay (absorbance at 450 nm) on the screening cells; conditions: CCK-8, absorbance at 450 nm, FIG. 2b
Protocol: In addition, in order to confirm that the inhibition of the luciferase activity is not caused by the death of a cell but by the Nrf2 inhibitor, absorbance was measured using a CCK-8 viability assay kit (Dojindo, Japan) and a spectrometer (Lab Systems, USA) at 450 nm.

HO-1 mRNA = experiment: Semi-quantitative RT-PCR of HO-1 mRNA; conditions: inhibitor, then tBHQ after 2 hours; GAPDH control; FIG. 3a
Protocol: After 2 hours from the treatment of 3-[(4-biphenylyloxy)methyl]piperidine chloride, the selected Nrf2 inhibitor, RNA expression was assayed in order to measure the increase in the amount of heme oxygenase (HO)-1 mRNA by tBHQ treatment. mRNA was isolated from the cells treated with 3-[(4-biphenylyloxy)methyl]piperidine hydrochloride, using an RNA extraction kit (Qiagen, USA) and identified using a spectrometer (Amersham Biosciences, USA). cDNA was obtained from the mRNA using a reverse transcriptase (Promega, USA), and PCR was conducted using the cDNA as a template and primers having sequences SEQ ID NOS: 11 and 12 to measure the expression level of HO-1 mRNA. The PCR was performed with 25 cycles, each of which consisting of a denaturation at 94°C for 30 seconds, an annealing at 55°C for 30 seconds, and an extension at 72°C for 1 minute. The DNA obtained using the PCR was electrophoresed in a 1.5% agarose gel, stained using ethidium bromide, and observed under UV rays. […] It is believed that the 3-[(4-biphenylyloxy)methyl]piperidine hydrochloride that is selected as the Nrf2 inhibitor using the ARE-pGL3 luciferase plasmid in Example 1 acted on the ARE site to inhibit the activity of the Nrf2 transcription factor.

HO-1 protein = experiment: Western blotting of HO-1 protein; conditions: FIG. 3b
Protocol: (§1) In order to identify whether the 3-[(4-biphenylyloxy)methyl]piperidine hydrochloride, the selected Nrf2 inhibitor, acted on the ARE site to inhibit the binding of the Nrf2 transcription factor, and thereby inhibiting the expression of antioxidant enzymes, protein expression was analyzed. The increase in the amount of HO-1 protein by the tBHQ treatment was assayed after treating cells with the 3-[(4-biphenylyloxy)methyl]piperidine hydrochloride followed by treatment with tBHQ with a 2-hour gap between the treatments. Cytoplasmic fractions were obtained from the cells treated as described above using a method commonly used in the art. The fractions were separated using a 10% gradient SDS-PAGE, and then transferred to a nitrocellulose membrane (BioRad, Hercules, CA, USA). The membrane was blocked with a 5% skim milk and screened with an anti-Nrf2 antibody (Abcam, USA) and a HO-1 antibody (Oncogene Research Products, USA). The result was visualized by a reaction with a horseradish peroxidase-conjugated anti-rat IgG antibody (Santa Cruz Biotechnology, Inc.) using a thermostat and then with an ECL system (GE, USA).

Nrf2 protein = experiment: Western blotting of Nrf2 protein; conditions: FIG. 3b
Protocol: as §1

H1299 lung cancer cells [1] = experiment: CCK-8 viability assay, alone and combined with Doxorubicin; conditions: 48 hours
Protocol: (§2) H1299 lung cancer cells, SKOV3 ovarian cancer cells, U87-MG brain cancer cells, and HT29 colorectal cancer cells were respectively inoculated into a 96-well plate including a Rosewell Park Memorial Institute medium 1640 (RPMI 1640) supplemented with 10% FBS, 100 µg/ml of streptomycin, and 100 unit/ml of penicillin. Each well was treated with 0.2, 2, 5, and 10 µM 3-[(4-biphenylyloxy)methyl]piperidine hydrochloride, and then treated with 0.15 µM Doxorubicin, an anti-cancer agent after 2 hours therefrom. The wells were cultured under 5% CO2 conditions at 37°C for 48 hours, and the killing effect of the cancer cells was assayed using a CCK-8 viability assay kit (Dojindo, Japan).

[2] = system: HT29 colorectal cancer cells; experiment: as above; conditions: 48 hours
Protocol: as §2

[3] = system: SKOV3 ovarian cancer cells; experiment: as above; conditions: 48 hours
Protocol: as §2

[4] = system: U87-MG brain cancer cells; experiment: as above; conditions: 48 hours
Protocol: as §2

H1299 lung cancer cells [5] = experiment: Clonogenic assay with radiation (methylene blue staining); conditions: 1, 5, and 10 µM with 2, 4, and 6 Gy radiation, 7 days
Protocol: (§3) H1299 lung cancer cells, U87-MG brain cancer cells, or HT29 colorectal cancer cells were respectively inoculated into a 6 cm plate including a RPMI 1640 supplemented with 10% FBS, 100 µg/ml of streptomycin, and 100 unit/ml of penicillin. The plate was treated with the selected 1, 5, and 10 µM 3-[(4-biphenylyloxy)methyl]piperidine hydrochloride, the Nrf2 inhibitor, exposed to 2, 4, and 6 Gy -radiation, and cultured under 5% CO2 conditions at 37°C for 7 days. The cultured cells were washed with a phosphate buffered saline (PBS) and stained with a 1% methylene blue in 100% methanol. Then, the number of alive cells that formed colonies was calculated three times.

[6] = system: HT29 colorectal cancer cells; experiment: as above; conditions: 1, 5, and 10 µM with 2, 4, and 6 Gy radiation, 7 days
Protocol: as §3

[7] = system: U87-MG brain cancer cells; experiment: as above; conditions: 1, 5, and 10 µM with 2, 4, and 6 Gy radiation, 7 days
Protocol: as §3

[8] = system: MB231 breast cancer cells; experiment: FACS of propidium iodide stained cells after radiation; conditions: 1 µM with 5 Gy radiation, 48 hours; compared to 5Gy radiation therapy
Protocol: (§4) In order to measure whether a treatment of MB231 breast cancer cells and SKOV3 ovarian cancer cells with a combination of 3-[(4-biphenylyloxy)methyl]piperidine chloride, the selected Nrf2 inhibitor, and radiation therapy increase or synergistically increase the killing of cancer cells by apoptosis, the cancer cells were treated with 1 µM 3-[(4-biphenylyloxy)methyl]piperidine hydrochloride, exposed to 5 Gy radiation, and cultured under 5% CO2 conditions at 37°C for 48 hours. The cultured cells were collected and stained with propidium iodide, and cell cycles were analyzed using a fluorescence activated cell sorting (FACS).

[9] = system: SKOV3 ovarian cancer cells; experiment: as above; conditions: 1 µM with 5 Gy radiation, 48 hours; compared to 5Gy radiation therapy
Protocol: as §4

[10] = inhibitor then tBHQ with a 2-hour gap, cytoplasmic fractions, concentration-dependent
[11] = 0.2, 2, 5, and 10 µM, then 0.15 µM Doxorubicin after 2 hours, compared to Doxorubicin alone
[12] = compound alone, 0.2, 2, 5, and 10 µM

Structure (SMILES): Cl.c1ccc(-c2ccc(OCC3CCCNC3)cc2)cc1 (stereo not shown) [3-[(4-biphenylyloxy)methyl]piperidine hydrochloride]
- activity of the luciferase (Nrf2; concentration dependence, FIG. 2a): inhibited the activity of the luciferase in a concentration-dependent manner
- activity of the luciferase (Nrf2; screening, final concentration of 10 µM, incubated for 18 hours): inhibits the activity of the luciferase
- cell toxicity (HEK293 cells): does not have cell toxicity
- expression of HO-1 mRNA (HO-1 mRNA): inhibited in a dose-dependent manner
- amount of HO-1 protein (HO-1 protein; [10]): reduced
- amount of Nrf2 protein (Nrf2 protein; [10]): reduced
- killing effect of a combination with Doxorubicin (H1299 lung cancer cells [1]; [11]): significantly increased in a concentration-dependent manner
- effect on the viability (H1299 lung cancer cells [1]; [12]): negligible
- killing effect of a combination with Doxorubicin [2, 11]: significantly increased in a concentration-dependent manner
- effect on the viability [2, 12]: negligible
- killing effect of a combination with Doxorubicin [3, 11]: significantly increased in a concentration-dependent manner
- effect on the viability [3, 12]: negligible
- killing effect of a combination with Doxorubicin [4, 11]: significantly increased in a concentration-dependent manner
- effect on the viability [4, 12]: negligible
- sensitivity of cells to radiation (H1299 lung cancer cells [5]): increased or synergistically increased the sensitivity of cells to radiation
- sensitivity of cells to radiation [6]: increased or synergistically increased the sensitivity of cells to radiation
- sensitivity of cells to radiation [7]: increased or synergistically increased the sensitivity of cells to radiation
- killing effect of the combination with radiation [8]: 4.3 times
- killing effect of the combination with radiation [9]: twice

Structure (SMILES): CC(C)(C)c1cc(O)ccc1O [tBHQ, tertiary butylhydroquinone, reference compound]
- activity of the luciferase (Nrf2; tBHQ added to the culture, activates the ARE): increased twice
- amount of HO-1 protein (HO-1 protein; treatment with tBHQ): increased
- amount of Nrf2 protein (Nrf2 protein; treatment with tBHQ): increased
